{
  "source": "paper PMC11842588",
  "about": "“A first-in-class selective inhibitor of ERK1/2 and ERK5 overcomes drug resistance with a single-molecule strategy” (Signal Transduction and Targeted Therapy, 2025)",
  "assay_in_all_cases": "Kinase profiling",
  "type_in_all_cases": "biochemical",
  "key": {"Pim-1(h)": {"target": "T1, Pim-1(h) (Homo sapiens, UniProt P11309)", "T1 construct": "purchased Eurofins Cerep SA (KinaseProfiler)", "T1 sequence (P11309 whole entry)": "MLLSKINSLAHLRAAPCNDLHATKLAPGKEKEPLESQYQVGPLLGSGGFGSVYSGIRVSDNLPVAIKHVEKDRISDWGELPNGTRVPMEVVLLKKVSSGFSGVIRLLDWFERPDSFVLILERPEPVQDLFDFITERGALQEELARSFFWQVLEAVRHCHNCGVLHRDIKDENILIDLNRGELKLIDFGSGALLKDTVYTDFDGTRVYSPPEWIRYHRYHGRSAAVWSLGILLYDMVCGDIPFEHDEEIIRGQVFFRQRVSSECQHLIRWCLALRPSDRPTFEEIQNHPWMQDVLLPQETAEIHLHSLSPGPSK", "method": "(§1) 380 kinases inhibitory activities of SKLB-D18 were conducted by Eurofins Cerep SA. The result was illustrated by kinase tree (http://www.kinhub.org/kinmap/)."}, "Lyn(h)": {"target": "T2, Lyn(h) (Homo sapiens, UniProt P07948)", "T2 construct": "purchased Eurofins Cerep SA (KinaseProfiler)", "method": "as §1"}, "EphB4(h)": {"target": "T3, EphB4(h) (Homo sapiens, UniProt P54760)", "T3 construct": "purchased Eurofins Cerep SA (KinaseProfiler)", "method": "as §1"}, "Rsk3(h)": {"target": "T4, Rsk3(h) (Homo sapiens, UniProt Q15349)", "T4 construct": "purchased Eurofins Cerep SA (KinaseProfiler)", "method": "as §1"}, "ErbB2(h)": {"target": "T5, ErbB2(h) (Homo sapiens, UniProt P04626)", "T5 construct": "purchased Eurofins Cerep SA (KinaseProfiler)", "T5 sequence (P04626 23-1255)": "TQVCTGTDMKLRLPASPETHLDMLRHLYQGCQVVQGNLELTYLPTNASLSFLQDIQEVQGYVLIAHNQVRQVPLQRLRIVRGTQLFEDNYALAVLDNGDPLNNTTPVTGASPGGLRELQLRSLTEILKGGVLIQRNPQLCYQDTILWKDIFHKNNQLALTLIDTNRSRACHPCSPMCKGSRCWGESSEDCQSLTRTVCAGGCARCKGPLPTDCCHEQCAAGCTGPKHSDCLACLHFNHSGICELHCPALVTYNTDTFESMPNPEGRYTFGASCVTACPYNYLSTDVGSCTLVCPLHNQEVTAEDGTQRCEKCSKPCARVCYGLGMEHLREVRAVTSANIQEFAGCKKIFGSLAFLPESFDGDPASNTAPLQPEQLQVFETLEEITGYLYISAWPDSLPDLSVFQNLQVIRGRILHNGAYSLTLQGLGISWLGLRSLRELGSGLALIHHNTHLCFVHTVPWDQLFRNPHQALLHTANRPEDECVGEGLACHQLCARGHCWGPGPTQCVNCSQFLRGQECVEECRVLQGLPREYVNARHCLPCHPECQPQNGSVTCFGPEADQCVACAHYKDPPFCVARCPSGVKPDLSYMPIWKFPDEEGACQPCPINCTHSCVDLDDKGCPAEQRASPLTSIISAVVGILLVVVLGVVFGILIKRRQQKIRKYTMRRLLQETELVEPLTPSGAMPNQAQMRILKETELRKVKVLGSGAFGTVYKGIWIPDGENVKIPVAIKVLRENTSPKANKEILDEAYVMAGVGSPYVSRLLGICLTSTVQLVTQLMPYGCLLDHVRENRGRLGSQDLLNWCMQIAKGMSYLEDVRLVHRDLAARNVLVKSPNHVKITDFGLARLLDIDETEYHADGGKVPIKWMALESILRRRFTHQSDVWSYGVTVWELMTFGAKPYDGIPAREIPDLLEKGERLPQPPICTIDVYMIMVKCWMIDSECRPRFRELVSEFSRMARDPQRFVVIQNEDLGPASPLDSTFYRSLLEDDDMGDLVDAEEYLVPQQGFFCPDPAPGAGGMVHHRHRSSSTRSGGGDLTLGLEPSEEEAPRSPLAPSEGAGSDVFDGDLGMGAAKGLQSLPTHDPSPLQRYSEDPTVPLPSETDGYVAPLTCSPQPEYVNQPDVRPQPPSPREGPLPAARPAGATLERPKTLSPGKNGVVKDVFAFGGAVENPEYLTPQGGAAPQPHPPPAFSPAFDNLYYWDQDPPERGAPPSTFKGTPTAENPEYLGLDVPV", "method": "as §1"}, "OSR1(h)": {"target": "T6, OSR1(h) (Homo sapiens, UniProt O95747)", "T6 construct": "purchased Eurofins Cerep SA (KinaseProfiler)", "method": "as §1"}, "CDK9/cyclin T1(h)": {"target": "T7, CDK9/cyclin T1(h) (Homo sapiens, UniProt P50750)", "T7 construct": "purchased Eurofins Cerep SA (KinaseProfiler)", "method": "as §1"}, "PKCγ(h)": {"target": "T8, PKCγ(h) (Homo sapiens, UniProt P05129)", "T8 construct": "purchased Eurofins Cerep SA (KinaseProfiler)", "method": "as §1"}, "CK1ε(h)": {"target": "T9, CK1ε(h) (Homo sapiens, UniProt P49674)", "T9 construct": "purchased Eurofins Cerep SA (KinaseProfiler)", "method": "as §1"}, "GSK3α(h)": {"target": "T10, GSK3α(h) (Homo sapiens, UniProt P49840)", "T10 construct": "purchased Eurofins Cerep SA (KinaseProfiler)", "method": "as §1"}, "ALK1(h)": {"target": "T11, ALK1(h) (Homo sapiens, UniProt P37023)", "T11 construct": "purchased Eurofins Cerep SA (KinaseProfiler)", "T11 sequence (P37023 22-503)": "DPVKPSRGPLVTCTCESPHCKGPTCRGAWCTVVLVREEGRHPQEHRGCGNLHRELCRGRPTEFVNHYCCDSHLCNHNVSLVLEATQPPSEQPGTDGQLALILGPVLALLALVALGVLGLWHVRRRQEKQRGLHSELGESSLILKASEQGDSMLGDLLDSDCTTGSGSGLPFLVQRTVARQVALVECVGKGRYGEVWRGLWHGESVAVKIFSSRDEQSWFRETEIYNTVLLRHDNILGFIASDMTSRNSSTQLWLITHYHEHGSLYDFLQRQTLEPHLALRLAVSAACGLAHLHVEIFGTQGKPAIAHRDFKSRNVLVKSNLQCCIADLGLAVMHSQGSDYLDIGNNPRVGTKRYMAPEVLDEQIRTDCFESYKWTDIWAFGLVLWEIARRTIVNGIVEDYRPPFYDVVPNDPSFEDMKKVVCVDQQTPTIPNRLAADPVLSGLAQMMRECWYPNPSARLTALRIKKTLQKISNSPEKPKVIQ", "method": "as §1"}, "Pim-2(h)": {"target": "T12, Pim-2(h) (Homo sapiens, UniProt Q9P1W9)", "T12 construct": "purchased Eurofins Cerep SA (KinaseProfiler)", "method": "as §1"}, "MAP4K4(h)": {"target": "T13, MAP4K4(h) (Homo sapiens, UniProt O95819)", "T13 construct": "purchased Eurofins Cerep SA (KinaseProfiler)", "method": "as §1"}, "TTK(h)": {"target": "T14, TTK(h) (Homo sapiens, UniProt P33981)", "T14 construct": "purchased Eurofins Cerep SA (KinaseProfiler)", "method": "as §1"}, "PI3KC2a(h)": {"target": "T15, PI3KC2a(h) (Homo sapiens, UniProt O00443)", "T15 construct": "purchased Eurofins Cerep SA (KinaseProfiler)", "method": "as §1"}, "PKCβII(h)": {"target": "T16, PKCβII(h) (Homo sapiens, UniProt P05771)", "T16 construct": "purchased Eurofins Cerep SA (KinaseProfiler)", "method": "as §1"}, "SLK(h)": {"target": "T17, SLK(h) (Homo sapiens, UniProt Q9H2G2)", "T17 construct": "purchased Eurofins Cerep SA (KinaseProfiler)", "method": "as §1"}, "DCAMKL1(h)": {"target": "T18, DCAMKL1(h) (Homo sapiens, UniProt O15075)", "T18 construct": "purchased Eurofins Cerep SA (KinaseProfiler)", "method": "as §1"}, "ROCK-I(h)": {"target": "T19, ROCK-I(h) (Homo sapiens, UniProt Q13464)", "T19 construct": "purchased Eurofins Cerep SA (KinaseProfiler)", "method": "as §1"}, "MSK1(h)": {"target": "T20, MSK1(h) (Homo sapiens, UniProt O75582)", "T20 construct": "purchased Eurofins Cerep SA (KinaseProfiler)", "T20 sequence (O75582 whole entry)": "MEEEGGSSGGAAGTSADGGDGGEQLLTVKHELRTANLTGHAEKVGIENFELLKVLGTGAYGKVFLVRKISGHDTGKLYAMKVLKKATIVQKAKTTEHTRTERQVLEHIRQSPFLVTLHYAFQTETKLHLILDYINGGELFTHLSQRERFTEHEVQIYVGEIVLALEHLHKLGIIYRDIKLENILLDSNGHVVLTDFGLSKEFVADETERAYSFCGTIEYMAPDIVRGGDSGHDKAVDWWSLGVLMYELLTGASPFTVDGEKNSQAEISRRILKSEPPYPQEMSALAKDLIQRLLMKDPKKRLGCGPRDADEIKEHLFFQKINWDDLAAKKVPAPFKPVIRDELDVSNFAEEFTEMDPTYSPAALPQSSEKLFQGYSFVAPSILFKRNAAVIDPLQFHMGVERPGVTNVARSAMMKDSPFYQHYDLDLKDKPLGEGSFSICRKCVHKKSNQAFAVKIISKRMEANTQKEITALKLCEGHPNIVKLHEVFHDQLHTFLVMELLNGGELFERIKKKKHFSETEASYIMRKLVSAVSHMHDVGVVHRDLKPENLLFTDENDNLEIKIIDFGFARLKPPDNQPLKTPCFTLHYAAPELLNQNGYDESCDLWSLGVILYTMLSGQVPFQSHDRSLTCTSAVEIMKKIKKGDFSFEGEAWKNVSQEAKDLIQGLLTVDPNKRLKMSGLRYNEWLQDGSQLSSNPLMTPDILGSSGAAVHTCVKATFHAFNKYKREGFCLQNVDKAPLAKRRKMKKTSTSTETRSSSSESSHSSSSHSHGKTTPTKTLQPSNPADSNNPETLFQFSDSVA", "method": "as §1"}, "PIP5K1a(h)": {"target": "T21, PIP5K1a(h) (Homo sapiens, UniProt Q99755)", "T21 construct": "purchased Eurofins Cerep SA (KinaseProfiler)", "method": "as §1"}, "PAK2(h)": {"target": "T22, PAK2(h) (Homo sapiens, UniProt Q13177)", "T22 construct": "purchased Eurofins Cerep SA (KinaseProfiler)", "method": "as §1"}, "CK2α1(h)": {"target": "T23, CK2α1(h) (Homo sapiens, UniProt P68400)", "T23 construct": "purchased Eurofins Cerep SA (KinaseProfiler)", "T23 sequence (P68400 whole entry)": "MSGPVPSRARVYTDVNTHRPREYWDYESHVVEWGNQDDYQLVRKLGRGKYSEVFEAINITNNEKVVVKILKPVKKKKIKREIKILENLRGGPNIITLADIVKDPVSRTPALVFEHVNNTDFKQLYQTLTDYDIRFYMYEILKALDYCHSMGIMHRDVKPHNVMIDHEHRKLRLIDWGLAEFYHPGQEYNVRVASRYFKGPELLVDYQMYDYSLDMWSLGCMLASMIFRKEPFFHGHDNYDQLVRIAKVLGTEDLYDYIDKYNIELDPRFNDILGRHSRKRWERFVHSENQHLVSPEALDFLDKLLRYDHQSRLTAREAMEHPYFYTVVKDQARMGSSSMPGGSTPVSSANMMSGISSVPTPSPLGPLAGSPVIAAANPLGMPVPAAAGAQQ", "method": "as §1"}, "IKKα(h)": {"target": "T24, IKKα(h) (Homo sapiens, UniProt O15111)", "T24 construct": "purchased Eurofins Cerep SA (KinaseProfiler)", "method": "as §1"}, "MAPKAP-K2(h)": {"target": "T25, MAPKAP-K2(h) (Homo sapiens, UniProt P49137)", "T25 construct": "purchased Eurofins Cerep SA (KinaseProfiler)", "method": "as §1"}, "TSSK1(h)": {"target": "T26, TSSK1(h) (Homo sapiens, UniProt Q9BXA7)", "T26 construct": "purchased Eurofins Cerep SA (KinaseProfiler)", "method": "as §1"}, "BrSK1(h)": {"target": "T27, BrSK1(h) (Homo sapiens, UniProt Q8TDC3)", "T27 construct": "purchased Eurofins Cerep SA (KinaseProfiler)", "method": "as §1"}, "ZIPK(h)": {"target": "T28, ZIPK(h) (Homo sapiens, UniProt O43293)", "T28 construct": "purchased Eurofins Cerep SA (KinaseProfiler)", "method": "as §1"}, "MYLK2(h)": {"target": "T29, MYLK2(h) (Homo sapiens, UniProt Q9H1R3)", "T29 construct": "purchased Eurofins Cerep SA (KinaseProfiler)", "method": "as §1"}, "DAPK2(h)": {"target": "T30, DAPK2(h) (Homo sapiens, UniProt Q9UIK4)", "T30 construct": "purchased Eurofins Cerep SA (KinaseProfiler)", "method": "as §1"}, "ULK1(h)": {"target": "T31, ULK1(h) (Homo sapiens, UniProt O75385)", "T31 construct": "purchased Eurofins Cerep SA (KinaseProfiler)", "method": "as §1"}, "MAPK3(h)": {"target": "T32, MAPK3(h) (Homo sapiens, UniProt P27361)", "T32 construct": "purchased Eurofins Cerep SA (KinaseProfiler)", "method": "as §1"}, "MLCK(h)": {"target": "T33, MLCK(h) (Homo sapiens, UniProt Q9H1R3)", "T33 construct": "purchased Eurofins Cerep SA (KinaseProfiler)", "T33 sequence (Q9H1R3 2-596 limits assumed)": "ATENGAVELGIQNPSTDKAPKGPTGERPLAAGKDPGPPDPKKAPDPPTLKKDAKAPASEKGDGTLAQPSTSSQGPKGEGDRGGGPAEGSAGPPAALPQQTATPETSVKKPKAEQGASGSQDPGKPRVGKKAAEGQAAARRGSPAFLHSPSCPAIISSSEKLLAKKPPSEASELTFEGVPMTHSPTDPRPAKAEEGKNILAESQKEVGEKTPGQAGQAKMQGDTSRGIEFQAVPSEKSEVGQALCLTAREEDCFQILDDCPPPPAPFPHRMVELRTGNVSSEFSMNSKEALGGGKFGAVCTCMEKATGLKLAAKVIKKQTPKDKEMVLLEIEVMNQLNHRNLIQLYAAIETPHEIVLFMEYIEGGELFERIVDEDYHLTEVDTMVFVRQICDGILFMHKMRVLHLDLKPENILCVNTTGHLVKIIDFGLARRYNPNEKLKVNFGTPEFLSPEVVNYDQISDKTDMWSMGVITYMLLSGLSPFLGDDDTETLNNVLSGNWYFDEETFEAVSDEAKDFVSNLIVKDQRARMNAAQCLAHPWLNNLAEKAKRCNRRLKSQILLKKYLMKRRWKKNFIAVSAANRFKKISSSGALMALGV", "method": "as §1"}, "DCAMKL3(h)": {"target": "T34, DCAMKL3(h) (Homo sapiens, UniProt Q9C098)", "T34 construct": "purchased Eurofins Cerep SA (KinaseProfiler)", "method": "as §1"}, "CLIK1(h)": {"target": "T35, CLIK1(h) (Homo sapiens, UniProt Q8TDR2)", "T35 construct": "purchased Eurofins Cerep SA (KinaseProfiler)", "T35 sequence (Q8TDR2 whole entry)": "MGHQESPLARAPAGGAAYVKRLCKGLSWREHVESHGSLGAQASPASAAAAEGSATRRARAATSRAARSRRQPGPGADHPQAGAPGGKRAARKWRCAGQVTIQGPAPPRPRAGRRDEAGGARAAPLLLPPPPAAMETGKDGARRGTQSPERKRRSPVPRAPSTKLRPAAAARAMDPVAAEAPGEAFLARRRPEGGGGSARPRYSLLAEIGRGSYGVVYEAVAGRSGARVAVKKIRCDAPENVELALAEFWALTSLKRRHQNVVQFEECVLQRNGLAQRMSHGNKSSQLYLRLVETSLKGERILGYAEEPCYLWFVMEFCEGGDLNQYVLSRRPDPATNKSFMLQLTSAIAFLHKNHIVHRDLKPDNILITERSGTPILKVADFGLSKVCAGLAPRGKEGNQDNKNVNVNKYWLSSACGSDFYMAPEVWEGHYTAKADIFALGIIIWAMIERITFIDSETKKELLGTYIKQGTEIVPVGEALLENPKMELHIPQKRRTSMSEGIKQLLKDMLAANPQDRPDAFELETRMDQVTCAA", "method": "as §1"}, "PIP4K2a(h)": {"target": "T36, PIP4K2a(h) (Homo sapiens, UniProt P48426)", "T36 construct": "purchased Eurofins Cerep SA (KinaseProfiler)", "T36 sequence (P48426 whole entry)": "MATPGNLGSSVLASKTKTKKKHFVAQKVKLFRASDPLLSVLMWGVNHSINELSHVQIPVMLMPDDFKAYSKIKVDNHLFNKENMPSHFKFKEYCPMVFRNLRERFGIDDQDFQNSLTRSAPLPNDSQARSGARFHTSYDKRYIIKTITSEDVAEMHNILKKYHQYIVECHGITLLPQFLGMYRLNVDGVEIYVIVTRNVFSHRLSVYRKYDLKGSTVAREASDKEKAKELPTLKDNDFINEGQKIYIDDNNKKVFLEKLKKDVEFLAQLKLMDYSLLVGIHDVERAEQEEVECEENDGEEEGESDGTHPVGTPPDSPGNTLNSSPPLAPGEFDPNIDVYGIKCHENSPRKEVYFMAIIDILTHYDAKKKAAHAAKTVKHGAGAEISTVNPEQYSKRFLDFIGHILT", "method": "as §1"}, "GRK2(h)": {"target": "T37, GRK2(h) (Homo sapiens, UniProt P25098)", "T37 construct": "purchased Eurofins Cerep SA (KinaseProfiler)", "method": "as §1"}, "PAK6(h)": {"target": "T38, PAK6(h) (Homo sapiens, UniProt Q9NQU5)", "T38 construct": "purchased Eurofins Cerep SA (KinaseProfiler)", "method": "as §1"}, "CSK(h)": {"target": "T39, CSK(h) (Homo sapiens, UniProt P41240)", "T39 construct": "purchased Eurofins Cerep SA (KinaseProfiler)", "method": "as §1"}, "WNK4(h)": {"target": "T40, WNK4(h) (Homo sapiens, UniProt Q96J92)", "T40 construct": "purchased Eurofins Cerep SA (KinaseProfiler)", "method": "as §1"}, "HPK1(h)": {"target": "T41, HPK1(h) (Homo sapiens, UniProt Q92918)", "T41 construct": "purchased Eurofins Cerep SA (KinaseProfiler)", "method": "as §1"}},
  "data": [
    {"smiles": "CN(C)Cc1cccc(Nc2ncc(Cl)c(-c3csc(C(=O)NN4CCOCC4)c3)n2)c1", "note": "[SKLB-D18, 4-(5-chloro-2-((3-((dimethylamino)methyl)phenyl)amino)pyrimidin-4-yl)-N-morpholinothiophene-2-carboxamide]", "values": [
      {"measurement": "inhibition at 1 µM", "setting": "Pim-1(h)", "value": 37, "unit": "%"},
      {"measurement": "inhibition at 1 µM", "setting": "Lyn(h)", "value": 60, "unit": "%"},
      {"measurement": "inhibition at 1 µM", "setting": "EphB4(h)", "value": 9, "unit": "%"},
      {"measurement": "inhibition at 1 µM", "setting": "Rsk3(h)", "value": 66, "unit": "%"},
      {"measurement": "inhibition at 1 µM", "setting": "ErbB2(h)", "value": -3, "unit": "%"},
      {"measurement": "inhibition at 1 µM", "setting": "OSR1(h)", "value": 28, "unit": "%"},
      {"measurement": "inhibition at 1 µM", "setting": "CDK9/cyclin T1(h)", "value": 28, "unit": "%"},
      {"measurement": "inhibition at 1 µM", "setting": "PKCγ(h)", "value": 27, "unit": "%"},
      {"measurement": "inhibition at 1 µM", "setting": "CK1ε(h)", "value": 18, "unit": "%"},
      {"measurement": "inhibition at 1 µM", "setting": "GSK3α(h)", "value": 58, "unit": "%"},
      {"measurement": "inhibition at 1 µM", "setting": "ALK1(h)", "value": 20, "unit": "%"},
      {"measurement": "inhibition at 1 µM", "setting": "Pim-2(h)", "value": 26, "unit": "%"},
      {"measurement": "inhibition at 1 µM", "setting": "MAP4K4(h)", "value": 14, "unit": "%"},
      {"measurement": "inhibition at 1 µM", "setting": "TTK(h)", "value": 34, "unit": "%"},
      {"measurement": "inhibition at 1 µM", "setting": "PI3KC2a(h)", "value": 1, "unit": "%"},
      {"measurement": "inhibition at 1 µM", "setting": "PKCβII(h)", "value": 28, "unit": "%"},
      {"measurement": "inhibition at 1 µM", "setting": "SLK(h)", "value": 4, "unit": "%"},
      {"measurement": "inhibition at 1 µM", "setting": "DCAMKL1(h)", "value": 17, "unit": "%"},
      {"measurement": "inhibition at 1 µM", "setting": "ROCK-I(h)", "value": 10, "unit": "%"},
      {"measurement": "inhibition at 1 µM", "setting": "MSK1(h)", "value": 17, "unit": "%"},
      {"measurement": "inhibition at 1 µM", "setting": "PIP5K1a(h)", "value": -5, "unit": "%"},
      {"measurement": "inhibition at 1 µM", "setting": "PAK2(h)", "value": 12, "unit": "%"},
      {"measurement": "inhibition at 1 µM", "setting": "CK2α1(h)", "value": 49, "unit": "%"},
      {"measurement": "inhibition at 1 µM", "setting": "IKKα(h)", "value": 34, "unit": "%"},
      {"measurement": "inhibition at 1 µM", "setting": "MAPKAP-K2(h)", "value": 1, "unit": "%"},
      {"measurement": "inhibition at 1 µM", "setting": "TSSK1(h)", "value": 60, "unit": "%"},
      {"measurement": "inhibition at 1 µM", "setting": "BrSK1(h)", "value": 2, "unit": "%"},
      {"measurement": "inhibition at 1 µM", "setting": "ZIPK(h)", "value": 64, "unit": "%"},
      {"measurement": "inhibition at 1 µM", "setting": "MYLK2(h)", "value": 68, "unit": "%"},
      {"measurement": "inhibition at 1 µM", "setting": "DAPK2(h)", "value": 53, "unit": "%"},
      {"measurement": "inhibition at 1 µM", "setting": "ULK1(h)", "value": 49, "unit": "%"},
      {"measurement": "inhibition at 1 µM", "setting": "MAPK3(h)", "value": 96, "unit": "%"},
      {"measurement": "inhibition at 1 µM", "setting": "MLCK(h)", "value": 16, "unit": "%"},
      {"measurement": "inhibition at 1 µM", "setting": "DCAMKL3(h)", "value": 66, "unit": "%"},
      {"measurement": "inhibition at 1 µM", "setting": "CLIK1(h)", "value": 12, "unit": "%"},
      {"measurement": "inhibition at 1 µM", "setting": "PIP4K2a(h)", "value": -1, "unit": "%"},
      {"measurement": "inhibition at 1 µM", "setting": "GRK2(h)", "value": 3, "unit": "%"},
      {"measurement": "inhibition at 1 µM", "setting": "PAK6(h)", "value": 10, "unit": "%"},
      {"measurement": "inhibition at 1 µM", "setting": "CSK(h)", "value": -11, "unit": "%"},
      {"measurement": "inhibition at 1 µM", "setting": "WNK4(h)", "value": 18, "unit": "%"},
      {"measurement": "inhibition at 1 µM", "setting": "HPK1(h)", "value": 68, "unit": "%"}
    ]}
  ]
}
